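48-hour exposure; five concentrations; linearly interpolated endpoints. GI50 marks 50% less growth. TGI denotes the concentration required for complete inhibition of growth.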 Some results are limits rather than exact numbers.

The subject of the first experiment is A549 NSCLC. Nature of the experiment: NCI-60 cell line screen, 48 h.
Compound `N#CCCN(c1ccc(C=Nc2cccc([N+](=O)[O-])c2)cc1)S(=O)(=O)c1ccccc1` yielded a TGI of more than 100 µM.
The same measure, in the same setting: the figure for `COc1ccc(/C(=C/n2ccnc2)C(=O)c2ccc(OC)c(OC)c2)cc1` is more than 100 µM; for `Clc1cc(N/N=C(/c2ccccc2)c2ncccn2)ncn1` it is 85.1 µM.
The same measure, in the same setting: next, `O=C1CC2(C[C@@H]3CCCCCCCCC[C@@H](C3)C2)N1` (some centres undefined): 38.4 µM.
Same read-out and setting: the figure for `CCCN=C1CC(C)Nc2ccccc2N1` (centres undefined) is more than 100 µM.
As for `CC(C)C(Sc1nc(-c2ccccc2)c(-c2ccccc2)[nH]1)C(=O)NNC(=S)Nc1ccccc1` (centres undefined), the TGI amounted to 60.9 µM.
The same measure, in the same setting: next, `COC1O[C@H]2CCN(C(=O)OCc3ccccc3)[C@H]2[C@H]1OCc1ccccc1` (some centres undefined): more than 100 µM; `CC(C)(C)OC(=O)NC(C)(C)C(=O)NCCC(=O)O`: more than 100 µM.
Same read-out and setting: next, `CC12CC(c3ccccc3O1)C(C(=O)Nc1ccc(F)cc1)C(=O)N2` (centres undefined): more than 100 µM; `COc1ccc(C2C(Cl)C(=O)N2NC(=O)c2ccc(NC(C)=O)cc2)cc1` (centres undefined): more than 100 µM.
Same read-out and setting: the figure for `Cc1c(Cl)cccc1NC(=O)C(=O)C1C(=O)CC(C)(C)CC1=O` is more than 100 µM; for `O=C1O[C@@H](c2ccccc2)C[C@@H]1CN1CCOCC1` it is more than 100 µM; for `COc1ccc2nc(-c3ccc(OCc4ccccc4)cc3)ccc2c1` it is more than 100 µM.
Take `N#C/C(=C\NC(=S)Nc1ccc(S(=O)(=O)Nc2ccccn2)cc1)C(N)=O`: the TGI was more than 100 µM.
Same read-out and setting: the figure for `COC1(C)CC2N(C(=O)c3ccccc3)N=C(c3ccccc3)CC2(C)O1` (centres undefined) is more than 100 µM.
On the same count and under the same terms, the figure for `O=c1oc2ccccc2c(O)c1C(c1cc(OCc2ccccc2)cc(OCc2ccccc2)c1)c1c(O)c2ccccc2oc1=O` is more than 56.4 µM; for `Nc1ccccc1Nc1ccccc1C(=O)[O-].Nc1ccccc1Nc1ccccc1C(=O)[O-].[Cu+2]` it is more than 100 µM; for `Cc1cc(-c2nc3ccccc3s2)ccc1NS(=O)(=O)O` it is more than 100 µM.
The same measure, in the same setting: the figure for `CCOC(=O)C(OCC1CC=CCC1)Sc1ccccc1` (centres undefined) is more than 100 µM.
For the compound `COc1cc(COC(=O)N[C@H](C(=O)O)C(C)(C)C)c([N+](=O)[O-])cc1OC`, the TGI was more than 100 µM.
Turning to `Cc1c(/C=N\NC(=S)N2CCN(C(=S)N/N=C\c3c(C)n(C)n(-c4ccccc4)c3=O)CC2)c(=O)n(-c2ccccc2)n1C`, the TGI was more than 100 µM.
On the same count and under the same terms, next, `Cc1cc2c(c(C(=O)NCCC(=O)O)c1)Oc1c(cc(C)cc1C(=O)NCCC(=O)O)S2`: more than 100 µM.

For another experiment, the system named is MCF7 breast. As to the kind of experiment: NCI-60 cell line screen, 48 h.
`Cc1cn(C2CC(N)C(CN)O2)c(=O)[nH]c1=O` (centres undefined) yielded a TGI of more than 100 µM.
On the same count and under the same terms, next, `Nc1nc2ncc(SCc3ccc(C(=O)NC(CCC(=O)O)C(=O)O)cc3)cc2c(=O)[nH]1` (centres undefined): more than 100 µM; `O=C1CC(O)c2c1csc2Br` (centres undefined): 45.7 µM.
As for `CCCCCCCCCC[C@@H](O)[C@H]1CC[C@H]([C@H]2CC[C@H]([C@H](O)CCCCCCCCCC[C@@H]3CC(CC(C)=O)C(=O)O3)O2)O1` (some centres undefined), the GI50 was 1.85 µM and the TGI is more than 50 µM.
In turn, `OCC1CCCC(n2cnc3c(=S)nc[nH]c32)O1` (centres undefined) had a TGI of more than 100 µM.
The same measure, in the same setting: the figure for `Clc1cc(N/N=C(/c2ccccc2)c2ncccn2)ncn1` is 46.4 µM; for `CC(C)(C)OC(=O)NC(C)(C)C(=O)NCCC(=O)O` it is more than 100 µM; for `CC12CC(c3ccccc3O1)C(C(=O)Nc1ccc(F)cc1)C(=O)N2` (centres undefined) it is more than 100 µM.
For `N#C/C(=C\NC(=S)Nc1ccc(S(=O)(=O)Nc2ccccn2)cc1)C(N)=O`, the TGI was more than 100 µM.
On the same count and under the same terms, the figure for `O=c1oc2ccccc2c(O)c1C(c1cc(OCc2ccccc2)cc(OCc2ccccc2)c1)c1c(O)c2ccccc2oc1=O` is 48.5 µM; for `COc1cc(COC(=O)N[C@H](C(=O)O)C(C)(C)C)c([N+](=O)[O-])cc1OC` it is more than 100 µM; for `Cc1cc2c(c(C(=O)NCCC(=O)O)c1)Oc1c(cc(C)cc1C(=O)NCCC(=O)O)S2` it is more than 100 µM.

For the next experiment, the system named is NCI-H23 lung. As to the kind of experiment: NCI-60 cell line screen, 48 h.
As for `Cc1cn(C2CC(N)C(CN)O2)c(=O)[nH]c1=O` (centres undefined), the TGI was more than 100 µM.
Still for that read-out and setting: next, `Nc1nc2ncc(SCc3ccc(C(=O)NC(CCC(=O)O)C(=O)O)cc3)cc2c(=O)[nH]1` (centres undefined): more than 100 µM; `CC(C)CC(N)C(=O)OCN1C(=O)C2C3C=CC(C2C1=O)C1C2C(=O)N(COC(=O)C(N)CC(C)C)C(=O)C2C31` (centres undefined): more than 100 µM.
The same measure, in the same setting: the figure for `O=C1CC(O)c2c1csc2Br` (centres undefined) is 59.1 µM; for `CCCCCCCCCC[C@@H](O)[C@H]1CC[C@H]([C@H]2CC[C@H]([C@H](O)CCCCCCCCCC[C@@H]3CC(CC(C)=O)C(=O)O3)O2)O1` (some centres undefined) it is more than 50 µM; for `COC(=O)c1cc(CC(C)C)c2c(c1)[nH]c1ccccc12` it is more than 100 µM.
Compound `C[N+](C)(C)CC(=O)N/N=c1\cc(C(=O)Nc2ccc(N=O)cc2C#N)oc2cc(O)ccc12` registered a TGI of more than 100 µM.
Still for that read-out and setting: next, `OCC1CCCC(n2cnc3c(=S)nc[nH]c32)O1` (centres undefined): more than 100 µM.
On the same count and under the same terms, next, `N#CCCN(c1ccc(C=Nc2cccc([N+](=O)[O-])c2)cc1)S(=O)(=O)c1ccccc1`: more than 100 µM.
The same measure, in the same setting: the figure for `COc1ccc(/C(=C/n2ccnc2)C(=O)c2ccc(OC)c(OC)c2)cc1` is more than 100 µM; for `Clc1cc(N/N=C(/c2ccccc2)c2ncccn2)ncn1` it is 58.3 µM; for `O=C1CC2(C[C@@H]3CCCCCCCCC[C@@H](C3)C2)N1` (some centres undefined) it is 31.3 µM.
Consider `CCCN=C1CC(C)Nc2ccccc2N1` (centres undefined), for which the TGI is more than 100 µM.
Still for that read-out and setting: the figure for `CC(C)C(Sc1nc(-c2ccccc2)c(-c2ccccc2)[nH]1)C(=O)NNC(=S)Nc1ccccc1` (centres undefined) is 37.2 µM.
On to `COC1O[C@H]2CCN(C(=O)OCc3ccccc3)[C@H]2[C@H]1OCc1ccccc1` (some centres undefined), for which the TGI was more than 90.5 µM.
Still for that read-out and setting: the figure for `CC(C)(C)OC(=O)NC(C)(C)C(=O)NCCC(=O)O` is more than 100 µM; for `CC12CC(c3ccccc3O1)C(C(=O)Nc1ccc(F)cc1)C(=O)N2` (centres undefined) it is more than 100 µM.
The same measure, in the same setting: the figure for `COc1ccc(C2C(Cl)C(=O)N2NC(=O)c2ccc(NC(C)=O)cc2)cc1` (centres undefined) is more than 100 µM.
On the same count and under the same terms, next, `Cc1c(Cl)cccc1NC(=O)C(=O)C1C(=O)CC(C)(C)CC1=O`: more than 100 µM; `O=C1O[C@@H](c2ccccc2)C[C@@H]1CN1CCOCC1`: 64.1 µM.
Compound `COc1ccc2nc(-c3ccc(OCc4ccccc4)cc3)ccc2c1` gave a TGI of more than 100 µM.
The same measure, in the same setting: next, `N#C/C(=C\NC(=S)Nc1ccc(S(=O)(=O)Nc2ccccn2)cc1)C(N)=O`: more than 100 µM; `O=c1oc2ccccc2c(O)c1C(c1cc(OCc2ccccc2)cc(OCc2ccccc2)c1)c1c(O)c2ccccc2oc1=O`: 23.1 µM; `Nc1ccccc1Nc1ccccc1C(=O)[O-].Nc1ccccc1Nc1ccccc1C(=O)[O-].[Cu+2]`: more than 100 µM.
Compound `Cc1cc(-c2nc3ccccc3s2)ccc1NS(=O)(=O)O` gave a TGI of more than 100 µM.
On the same count and under the same terms, the figure for `CCOC(=O)C(OCC1CC=CCC1)Sc1ccccc1` (centres undefined) is more than 100 µM; for `COc1cc(COC(=O)N[C@H](C(=O)O)C(C)(C)C)c([N+](=O)[O-])cc1OC` it is more than 100 µM; for `Cc1c(/C=N\NC(=S)N2CCN(C(=S)N/N=C\c3c(C)n(C)n(-c4ccccc4)c3=O)CC2)c(=O)n(-c2ccccc2)n1C` it is more than 100 µM.
Still for that read-out and setting: the figure for `Cc1cc2c(c(C(=O)NCCC(=O)O)c1)Oc1c(cc(C)cc1C(=O)NCCC(=O)O)S2` is more than 100 µM.

(Values after PubChem BioAssay (NCI).)
